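Growth conditions: 96-well plates. Treatment: test compound, 48 hours, 5 concentrations. Analysis: linear interpolation between bracketing concentrations; unreached endpoints set to highest concentration. GI50 marks 50% less growth.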 The source made the active and inactive calls. Cut-off read from the data, not from the text of the source: active = GI50 up to about 1.1 µM and inactive = higher.
Tests used:
Assay in all cases: inhibition of tumour cell growth, NCI panel, 48 h
[1] = test system: A498
[2] = test system: HOP-62
[3] = test system: MDA-N
[4] = test system: HT-29
[5] = test system: 786-0
[6] = test system: UACC-257
[7] = test system: HOP-92
[8] = test system: UO-31
[9] = test system: EKVX
[10] = test system: HCT-116
[11] = test system: NCI-H522
[12] = test system: MDA-MB-435
[13] = test system: DU-145
[14] = test system: A549
[15] = test system: NCI-H460
[16] = test system: SK-MEL-28
[17] = test system: NCI/ADR-RES
[18] = test system: SNB-19
[19] = test system: IGROV-1
[20] = test system: RXF 631

SMILES | GI50 [1] | GI50 [2] | GI50 [3] | GI50 [4] | GI50 [5] | GI50 [6] | GI50 [7] | GI50 [8] | GI50 [9] | GI50 [10] | GI50 [11] | GI50 [12] | GI50 [13] | GI50 [14] | GI50 [15] | GI50 [16] | GI50 [17] | GI50 [18] | GI50 [19] | GI50 [20]
COC(=O)C(Cc1c[nH]c2ccccc12)NC1=Nc2ccncc2S(=O)(=O)N1c1cccc(OC(C)C)c1 (configuration not stated) | 82 µM (inactive) | 56.2 µM (inactive) | 67.3 µM (inactive) | 34.2 µM (inactive) | 34.2 µM (inactive) | > 100 µM (inactive) | 3.94 µM (inactive) | 45.3 µM (inactive) | 36.6 µM (inactive) | 35.4 µM (inactive) | 21.4 µM (inactive) | 45.9 µM (inactive) | 32.8 µM (inactive) | 29.6 µM (inactive) | 27.7 µM (inactive) | > 100 µM (inactive) | 20.9 µM (inactive) | 68.1 µM (inactive) | 18.7 µM (inactive) | –
CCC(=O)c1cn(C)c(=O)c2ccccc12 | – | > 100 µM (inactive) | – | > 100 µM (inactive) | > 100 µM (inactive) | > 100 µM (inactive) | > 100 µM (inactive) | > 100 µM (inactive) | > 100 µM (inactive) | – | > 100 µM (inactive) | – | – | > 100 µM (inactive) | > 100 µM (inactive) | > 100 µM (inactive) | – | > 100 µM (inactive) | > 100 µM (inactive) | > 100 µM (inactive)
CCOC(=O)Nc1nc(-c2ccccc2)c(C)s1 | > 100 µM (inactive) | > 100 µM (inactive) | > 100 µM (inactive) | 48.6 µM (inactive) | > 100 µM (inactive) | > 100 µM (inactive) | 11.7 µM (inactive) | 60 µM (inactive) | 23.7 µM (inactive) | 88.7 µM (inactive) | 28 µM (inactive) | > 100 µM (inactive) | 52.6 µM (inactive) | > 100 µM (inactive) | 64 µM (inactive) | > 100 µM (inactive) | 59 µM (inactive) | > 100 µM (inactive) | 44.2 µM (inactive) | –
CC(=O)Oc1ccc2[nH]c3c(C)c4cccc-4ccc3c2c1 | 2.1 µM (inactive) | 2.29 µM (inactive) | 2.36 µM (inactive) | 2.02 µM (inactive) | 1.85 µM (inactive) | 1.92 µM (inactive) | 2.12 µM (inactive) | 1.76 µM (inactive) | 2.2 µM (inactive) | 2.07 µM (inactive) | 1.63 µM (inactive) | 2 µM (inactive) | 3.27 µM (inactive) | 2.26 µM (inactive) | 2.94 µM (inactive) | 2.31 µM (inactive) | 2.28 µM (inactive) | 2.04 µM (inactive) | 1.57 µM (inactive) | –
CC(C)(O)CCc1ccc(O)c2c(=O)c3c(O)c4c(cc3oc12)O[C@H]1OC=C[C@@]41O [AUSTOCYSTIN D] | < 0.01 µM (active) | 0.147 µM (active) | < 0.01 µM (active) | 1.24 µM (inactive) | 7.06 µM (inactive) | 0.0184 µM (active) | 0.251 µM (active) | < 0.01 µM (active) | 0.255 µM (active) | 0.0199 µM (active) | 5.27 µM (inactive) | < 0.01 µM (active) | < 0.01 µM (active) | 0.726 µM (active) | 0.0507 µM (active) | 0.286 µM (active) | < 0.01 µM (active) | 0.148 µM (active) | < 0.01 µM (active) | –
C/C=C/[C@H](O[Si](C)(C)C(C)(C)C)[C@@H](O)/C=C/C(=O)OCC | 30.3 µM (inactive) | 17 µM (inactive) | 19.6 µM (inactive) | 21.5 µM (inactive) | 20.8 µM (inactive) | 19 µM (inactive) | 23.8 µM (inactive) | 24 µM (inactive) | 20.7 µM (inactive) | 17.9 µM (inactive) | 16.7 µM (inactive) | 19.5 µM (inactive) | 43.8 µM (inactive) | 30.1 µM (inactive) | 15.9 µM (inactive) | 16.9 µM (inactive) | 26.8 µM (inactive) | 14.3 µM (inactive) | 22.8 µM (inactive) | –
Brc1ccc(/N=C/C=C(\Nc2ccc(Br)cc2)C23CC4CC(CC(C4)C2)C3)cc1 | 14.1 µM (inactive) | 19.1 µM (inactive) | 12.4 µM (inactive) | 18 µM (inactive) | 13.9 µM (inactive) | 16.6 µM (inactive) | 13.6 µM (inactive) | 17.7 µM (inactive) | 18.8 µM (inactive) | 9.04 µM (inactive) | 10.9 µM (inactive) | 5.11 µM (inactive) | 14.5 µM (inactive) | 22.5 µM (inactive) | 6.12 µM (inactive) | 18.5 µM (inactive) | 20 µM (inactive) | 29.6 µM (inactive) | 11.3 µM (inactive) | –
CC(=O)NC1C(OCc2ccccc2)OC(CO)C(O)C1OCC(=O)N1CCCC1C(=O)NC(CCC(=O)NCCCCCNc1c2ccccc2nc2cccc([N+](=O)[O-])c12)C(N)=O (configuration not stated) | 0.0568 µM (active) | 0.017 µM (active) | 0.019 µM (active) | 0.00125 µM (active) | 0.0131 µM (active) | 0.0481 µM (active) | 0.0252 µM (active) | 0.0422 µM (active) | 0.148 µM (active) | 0.00433 µM (active) | 0.0353 µM (active) | 0.0154 µM (active) | 0.0192 µM (active) | 0.0134 µM (active) | 0.00125 µM (active) | 0.0307 µM (active) | 0.0726 µM (active) | 0.028 µM (active) | 0.232 µM (active) | –

Reference: ChEMBL document CHEMBL1201862, “PubChem BioAssay data set” (2004)
